Source: patent publication EP0543555A1, “Phosphorylated flavanoids in the treatment of viral diseases” (MERRELL DOW PHARMACEUTICALS INC., priority 1991, dated 1993)
Several values for one entry are separate records, joined by “and”; a condition that tells them apart may be missing. Identical values can stand only once. Like-named read-outs stand apart in the source and are kept apart here.

Legend:
HIV-1 [1] = conditions: for p24: day 4 supernatant; for Mean Syncytial Counts Day 3 % / Mean Syncytial Counts Day 4 %: % of virus control; for Mean Syncytial Counts Day 4 %: 5760 min
Experimental: (§1) JM cells were infected with HIV-1 for 2 hours at room temperature. The cells were then washed and distributed into duplicate wells containing different concentrations of the test compound and incubated at 37°C. On days 3 and 4 the cells were observed and the syncytia counted and on day 4 the supernatant fluid was also harvested for detection of p24 viral core antigen using the Abbott EIA.

HIV-1 [2] = assay: microbe, parasite or virus in culture
Experimental: as §1

[3] = tested on: Herpes type 2 strain HG52; assay: Herpes type 2 plaque reduction assay (Vero cells); format: cell-based; conditions: for %: % of virus control
Description: Cell Line: Vero Virus: Herpes type 2 strain HG52

CMV = assay: Anti-CMV plaque reduction assay (AD169 strain, MRC 5 cell line); format: cell-based, cytomegalovirus (CMV); conditions: for %: % of virus control
Experimental: Experiments were carried out whereby phosphorylated hesperidin was present at the following times of the virus (AD169 strain, MRC 5 cell line) growth cycle. • 1. During adsorption and after • 2. During adsorption, then not • 3. Only added after adsorption A virus control with no drug was present on each plate.

[4] = Human immunodeficiency virus 1, 72 h, read-out: Mean Syncytial Counts Day 3 %
[5] = Human immunodeficiency virus 1, 96 h, read-out: Mean Syncytial Counts Day 4 %
[6] = First trial, during adsorption and incubation, 10 µg/ml
[7] = First trial, during adsorption and incubation, 50 µg/ml
[8] = First trial, during adsorption and incubation, 100 µg/ml
[9] = First trial, during adsorption, 10 µg/ml
[10] = First trial, during adsorption, 50 µg/ml
[11] = First trial, during adsorption, 100 µg/ml
[12] = Second trial, during adsorption and incubation, 125 µg/ml
[13] = Second trial, during adsorption and incubation, 250 µg/ml
[14] = Second trial, during adsorption and incubation, 500 µg/ml
[15] = Second trial, during adsorption, 500 µg/ml
[16] = Second trial, incubation only, 125 µg/ml
[17] = Second trial, incubation only, 250 µg/ml
[18] = Second trial, incubation only, 500 µg/ml
[19] = First trial, added before and after adsorption, 31 µg/ml
[20] = Second trial, during and after adsorption, 31 µg/ml
[21] = Second trial, during and after adsorption, 62 µg/ml
[22] = Third trial, after adsorption only, 3.75 µg/ml
[23] = Third trial, after adsorption only, 7.5 µg/ml
[24] = Third trial, after adsorption only, 15 µg/ml
[25] = Third trial, after adsorption only, 31µg/ml
[26] = Third trial, after adsorption only, 62 µg/ml
[27] = Third trial, during adsorption only, 3.75 µg/ml
[28] = Third trial, during adsorption only, 7.5 µg/ml
[29] = Third trial, during adsorption only, 15 µg/ml
[30] = Third trial, during adsorption only, 31µg/ml
[31] = Third trial, during and after adsorption, 3.75 µg/ml
[32] = Third trial, during and after adsorption, 7.5 µg/ml
[33] = Third trial, during and after adsorption, 15 µg/ml
[34] = Third trial, during and after adsorption, 31µg/ml
[35] = Third trial, during and after adsorption, 62 µg/ml

Compound: Nc1ccn([C@H]2CC[C@@H](CO)O2)c(=O)n1 [ddC, reference compound]
- Mean Syncytial Counts Day 3 (HIV-1 [1]; Conc 0.1 µM): 21
- Mean Syncytial Counts Day 4 (HIV-1 [1]; Conc 0.1 µM): 31
- Mean Syncytial Counts Day 3 (HIV-1 [1]; Conc 0.3 µM): 0
- Mean Syncytial Counts Day 4 (HIV-1 [1]; Conc 0.3 µM): 6
- p24 (HIV-1 [1]; Conc 0.3 µM): 341 pg/mL
- Mean Syncytial Counts Day 3 (HIV-1 [1]; Conc 1 µM): 0
- Mean Syncytial Counts Day 4 (HIV-1 [1]; Conc 1 µM): 0
- p24 (HIV-1 [1]; Conc 1 µM): 199 pg/mL
- Mean Syncytial Counts Day 3 (HIV-1 [1]; Conc 3 µM): 0
- Mean Syncytial Counts Day 4 (HIV-1 [1]; Conc 3 µM): 0
- p24 (HIV-1 [1]; Conc 3 µM): 98 pg/mL
- Mean Syncytial Counts Day 3 (HIV-1 [1]; Conc 10 µM): 0
- Mean Syncytial Counts Day 4 (HIV-1 [1]; Conc 10 µM): 0
- p24 (HIV-1 [1]; Conc 10 µM): 132 pg/mL
- activity at 0.1 µM (HIV-1 [2]; [4]): 37%
- activity at 0.3 µM (HIV-1 [2]; [4]): 0%
- activity at 1 µM (HIV-1 [2]; [4]): 0%
- activity at 3 µM (HIV-1 [2]; [4]): 0%
- activity at 10 µM (HIV-1 [2]; [4]): 0%
- activity at 0.1 µM (HIV-1 [2]; [5]): 37%
- activity at 0.3 µM (HIV-1 [2]; [5]): 7%
- activity at 1 µM (HIV-1 [2]; [5]): 0%
- activity at 3 µM (HIV-1 [2]; [5]): 0%
- activity at 10 µM (HIV-1 [2]; [5]): 0%

Compound: Phosphorylated Hesperidin
- No. of Plaques [3, 6]: 253 and 243
- No. of Plaques Average [3, 6]: 248
- % [3, 6]: 100%
- No. of Plaques [3, 7]: 112 and 132
- No. of Plaques Average [3, 7]: 122
- % [3, 7]: 54%
- No. of Plaques [3, 8]: 95 and 62
- No. of Plaques Average [3, 8]: 78.5
- % [3, 8]: 35%
- No. of Plaques [3, 9]: 211 and 231
- No. of Plaques Average [3, 9]: 221
- % [3, 9]: 98%
- No. of Plaques [3, 10]: 154 and 146
- No. of Plaques Average [3, 10]: 150
- % [3, 10]: 66%
- No. of Plaques [3, 11]: 187 and 144
- No. of Plaques Average [3, 11]: 166
- % [3, 11]: 73%
- No. of Plaques [3, 12]: 58 and 71
- No. of Plaques Average [3, 12]: 64.5
- % [3, 12]: 46%
- No. of Plaques [3, 13]: 11 and 10
- No. of Plaques Average [3, 13]: 10.5
- % [3, 13]: 7.5%
- No. of Plaques [3, 14]: None
- No. of Plaques Average [3, 14]: 0
- % [3, 14]: 0%
- No. of Plaques [3, 15]: 50 and 58
- No. of Plaques Average [3, 15]: 54
- % [3, 15]: 38%
- No. of Plaques [3, 16]: 50 and 61
- No. of Plaques Average [3, 16]: 55.5
- % [3, 16]: 39%
- No. of Plaques [3, 17]: 16 and 11
- No. of Plaques Average [3, 17]: 13.5
- % [3, 17]: 9.6%
- No. of Plaques [3, 18]: None
- No. of Plaques Average [3, 18]: 0
- % [3, 18]: 0%
- Mean Syncytial Counts Day 3 % (HIV-1 [1]; Conc 0.1 µg/ml, 4320 min): 100%
- Mean Syncytial Counts Day 4 % (HIV-1 [1]; Conc 0.1 µg/ml): 100%
- Mean Syncytial Counts Day 3 % (HIV-1 [1]; Conc 0.3 µg/ml, 4320 min): 100%
- Mean Syncytial Counts Day 4 % (HIV-1 [1]; Conc 0.3 µg/ml): 100%
- Mean Syncytial Counts Day 3 % (HIV-1 [1]; Conc 1 µg/ml, 4320 min): 100%
- Mean Syncytial Counts Day 4 % (HIV-1 [1]; Conc 1 µg/ml): 100%
- Mean Syncytial Counts Day 3 (HIV-1 [1]; Conc 3 µg/ml): As VC
- Mean Syncytial Counts Day 3 % (HIV-1 [1]; Conc 3 µg/ml): 100%
- Mean Syncytial Counts Day 4 % (HIV-1 [1]; Conc 3 µg/ml): 100%
- Mean Syncytial Counts Day 3 (HIV-1 [1]; Conc 10 µg/ml): 51
- Mean Syncytial Counts Day 4 (HIV-1 [1]; Conc 10 µg/ml): As VC
- Mean Syncytial Counts Day 3 % (HIV-1 [1]; Conc 10 µg/ml, 4320 min): 89%
- Mean Syncytial Counts Day 4 % (HIV-1 [1]; Conc 10 µg/ml): 100%
- Mean Syncytial Counts Day 3 (HIV-1 [1]; Conc 30 µg/ml): 9
- Mean Syncytial Counts Day 4 (HIV-1 [1]; Conc 30 µg/ml): 45
- Mean Syncytial Counts Day 3 % (HIV-1 [1]; Conc 30 µg/ml, 4320 min): 16%
- Mean Syncytial Counts Day 4 % (HIV-1 [1]; Conc 30 µg/ml): 48%
- Mean Syncytial Counts Day 3 (HIV-1 [1]; Conc 100 µg/ml): 0
- Mean Syncytial Counts Day 4 (HIV-1 [1]; Conc 100 µg/ml): 5
- Mean Syncytial Counts Day 3 % (HIV-1 [1]; Conc 100 µg/ml, 4320 min): 0%
- Mean Syncytial Counts Day 4 % (HIV-1 [1]; Conc 100 µg/ml): 5%
- No. of Plaques (CMV; [19]): 27 and 20 and 24
- No. of Plaques Average (CMV; [19]): 24
- % (CMV; [19]): 9.9%
- No. of Plaques (CMV; First trial, added before and after adsorption, 125 µg/ml): No plaques
- No. of Plaques (CMV; First trial, added before and after adsorption, 250 µg/ml): totally blocked
- No. of Plaques (CMV; Second trial, after adsorption only, 31 µg/m): As virus control
- No. of Plaques (CMV; Second trial, after adsorption only, 62 µg/ml): As virus control
- No. of Plaques (CMV; Second trial, after adsorption only, 125 µg/ml): As virus control
- No. of Plaques (CMV; Second trial, after adsorption only, 250 µg/ml): None
- No. of Plaques (CMV; Second trial, after adsorption only, 500 µg/ml): None
- No. of Plaques (CMV; [20]): 35 and 40
- No. of Plaques Average (CMV; [20]): 32.5
- % (CMV; [20]): 17%
- No. of Plaques (CMV; [21]): 35 and 40
- No. of Plaques Average (CMV; [21]): 37.5
- % (CMV; [21]): 22%
- No. of Plaques (CMV; Second trial, during and after adsorption, 125 µg/ml, estimate): ~40 (estimate)
- No. of Plaques (CMV; Second trial, during and after adsorption, 250 µg/ml): None
- No. of Plaques (CMV; Second trial, during and after adsorption, 500 µg/ml): None
- No. of Plaques (CMV; [22]): As v.c.
- % (CMV; [22]): 100%
- No. of Plaques (CMV; [23]): As v.c
- % (CMV; [23]): 100%
- No. of Plaques (CMV; [24]): 120 125 131
- No. of Plaques Average (CMV; [24]): 125
- plaque size (remark in No. of Plaques cell) (CMV; [24]): much smaller plaques
- % (CMV; [24]): 66%
- No. of Plaques (CMV; [25]): 119 125 128
- No. of Plaques Average (CMV; [25]): 124
- % (CMV; [25]): 65%
- No. of Plaques Average (CMV; [26]): 89
- plaque size (remark in No. of Plaques cell) (CMV; [26]): smaller plaques
- % (CMV; [26]): 47%
- No. of Plaques (CMV; [27]): As v.c.
- % (CMV; [27]): 100%
- No. of Plaques (CMV; [28]): As v.c.
- No. of Plaques Average (CMV; [28]): 141
- % (CMV; [28]): 100%
- No. of Plaques (CMV; [29]): 148 140 135
- % (CMV; [29]): 74%
- No. of Plaques (CMV; [30]): 120 115 111
- No. of Plaques Average (CMV; [30]): 115
- plaque size (remark in No. of Plaques cell) (CMV; [30]): much smaller plaques
- % (CMV; [30]): 61%
- state of monolayer (printed in place of No. of Plaques) (CMV; Third trial, during adsorption only, 62 µg/ml, MRC 5 cell line): monolayer destroyed
- No. of Plaques (CMV; [31]): 128 125 121
- No. of Plaques Average (CMV; [31]): 125
- % (CMV; [31]): 66%
- No. of Plaques (CMV; [32]): 119 115 103
- No. of Plaques Average (CMV; [32]): 122
- % (CMV; [32]): 64%
- No. of Plaques Average (CMV; [33]): 76
- % (CMV; [33]): 40%
- No. of Plaques Average (CMV; [34]): 60
- % (CMV; [34]): 32%
- No. of Plaques Average (CMV; [35]): 48
- % (CMV; [35]): 25%
